Drawing on patent publication US4060682A, “Process for the synthetic production of 3-deoxy derivative of an aminoglycosidic antibiotic” (priority 1974, dated 1977), this text covers MIC for five compounds.

Common to all, as to test: Minimum inhibitory concentration, standard serial dilution method, nutrient agar
Format in all cases: cell-based

In test [1] the test system is Pseudomonas aeruginosa GN315. Conditions: GN315, 18 h, read-out: Minimum Inhibitory Concentration. An excerpt:
(§1) 3'-Deoxyneamine, 3'-deoxy-6'-N-methylneamine, 3'-deoxyribostamycin, 3'-deoxy-6'-N-methylribostamycin, 3'-deoxykanamycin B, 3'-deoxy-6'-N-methylkanamycin B and 3'-deoxyparomamine which are produced by the process of this invention have been confirmed to be identical to their authentic samples, respectively, by making comparison between their n.m.r. spectra (in D2 O), mass spectra of their derivatives, thin layer chromatography on silica gel (developed with 4:5:2:5 n-butanolethanol-chloroform-17% aqueous ammonia) and antibacterial spectra. […] These 3'-deoxy derivatives are of low toxicity similarly to their parent substances and are useful for the therapeutic treatment of infections by gram-positive and gram-negative bacteria. 3'-Deoxyparomamine is useful as an intermediate for synthesis of any valuable derivative of aminoglycosidic antibiotics. The minimum inhibitory concentrations (mcg/ml) of these 3'-deoxy derivatives against various microorganisms were determined according to a standard serial dilution method using nutrient agar incubation medium at 37° C, the estimation being effected after 18 hours incubation.

The subject of test [2] is Pseudomonas aeruginosa A3. To be noted: A3, 18 h, read-out: Minimum Inhibitory Concentration.
Source text: as §1

In test [3] the test system is Escherichia coli K12. To be noted: K12, 18 h, read-out: Minimum Inhibitory Concentration.
Source text: as §1

For test [4], the system named is Escherichia coli K12 LA290 R55. To be noted: K12LA290R55, 18 h, read-out: Minimum Inhibitory Concentration.
Source text: as §1

In test [5] the test system is Escherichia coli K12 ML1410. Conditions: K12ML1410, 18 h, read-out: Minimum Inhibitory Concentration.
Source text: as §1

Test [6] has as its system Escherichia coli K12 W677. To be noted: K12W677, 37° C, 18 hours.
Source text: as §1

For test [7], the system named is Escherichia coli K12 JR66/W677. Conditions: K12JR66/W677, 18 h, read-out: Minimum Inhibitory Concentration.
Source text: as §1

Test [8] deals with Pseudomonas aeruginosa No.12. Conditions: NO.12, 18 h, read-out: Minimum Inhibitory Concentration.
Source text: as §1

Test [9] deals with Staphylococcus aureus FDA 209P. To be noted: FDA209P, 18 h, read-out: Minimum Inhibitory Concentration.
Source text: as §1

The subject of test [10] is Escherichia coli K12 ML1629. Conditions: K12ML1629, 18 h, read-out: Minimum Inhibitory Concentration.
Source text: as §1

≈ marks a conversion by molar mass, not a printed value.

Turning to `N[C@@H]1C[C@H](O)[C@@H](CO)O[C@@H]1O[C@H]1[C@H](O)[C@@H](O)[C@H](N)C[C@@H]1N` [3'-Deoxyparomamine, 3'-deoxyparomamine], the MIC was over 100 µg/mL in test [1]; over 100 µg/mL in [2]; 100 µg/mL (≈ 325 µM) in test [3]; 50 µg/mL (≈ 163 µM) in test [4]; over 100 µg/mL in test [5]; over 100 µg/mL in [6]. For the same compound, the MIC was over 100 µg/mL in [7], over 100 µg/mL in test [8], 50 µg/mL (≈ 163 µM) in test [9] and 100 µg/mL (≈ 325 µM) in test [10].
Consider `CNC[C@H]1O[C@H](O[C@H]2[C@H](O)[C@@H](O[C@H]3O[C@H](CO)[C@@H](O)[C@H](N)[C@H]3O)[C@H](N)C[C@@H]2N)[C@H](N)C[C@@H]1O` [3'-Deoxy-6'-N-methylkanamycin B, 3'-deoxy-6'-N-methylkanamycin B], for which the MIC was determined as 6.25 µg/mL (≈ 13 µM) in test [1]; 0.78 µg/mL (≈ 1.62 µM) in test [2]; 0.78 µg/mL (≈ 1.62 µM) in test [3]; 50 µg/mL (≈ 104 µM) in test [4]; 1.56 µg/mL (≈ 3.24 µM) in test [5]; 1.56 µg/mL (≈ 3.24 µM) in test [6]. The MIC in [7] worked out at 50 µg/mL (≈ 104 µM); in test [8] it was 0.78 µg/mL (≈ 1.62 µM); in test [9] it was 1.56 µg/mL (≈ 3.24 µM); in test [10], 1.56 µg/mL (≈ 3.24 µM).
Consider `NC[C@H]1O[C@H](O[C@H]2[C@H](O[C@@H]3O[C@H](CO)[C@@H](O)[C@H]3O)[C@@H](O)[C@H](N)C[C@@H]2N)[C@H](N)C[C@@H]1O` [3'-Deoxyribostamycin, 3'-deoxyribostamycin], for which the MIC in [1] is over 100 µg/mL; in test [2], 3.12 µg/mL (≈ 7.12 µM); in test [3] it was 6.25 µg/mL (≈ 14.3 µM); in test [4], over 100 µg/mL; in test [5], 6.25 µg/mL (≈ 14.3 µM); in test [6], 3.12 µg/mL (≈ 7.12 µM). In addition, the MIC is over 100 µg/mL in test [7], 3.12 µg/mL (≈ 7.12 µM) in test [8], 6.25 µg/mL (≈ 14.3 µM) in [9] and over 100 µg/mL in test [10].
On to `NC[C@H]1O[C@H](O[C@H]2[C@H](O)[C@@H](O[C@H]3O[C@H](CO)[C@@H](O)[C@H](N)[C@H]3O)[C@H](N)C[C@@H]2N)[C@H](N)C[C@@H]1O` [3'-Deoxykanamycin B, 3'-deoxykanamycin B], for which the MIC turned out to be 100 µg/mL (≈ 214 µM) in test [1]; 0.78 µg/mL (≈ 1.67 µM) in test [2]; 0.78 µg/mL (≈ 1.67 µM) in [3]; 50 µg/mL (≈ 107 µM) in [4]; 0.78 µg/mL (≈ 1.67 µM) in test [5]; 1.56 µg/mL (≈ 3.34 µM) in test [6]. Also, the MIC in test [7] is 50 µg/mL (≈ 107 µM); in test [8], 0.78 µg/mL (≈ 1.67 µM); in test [9], 0.78 µg/mL (≈ 1.67 µM); in test [10] it was 0.78 µg/mL (≈ 1.67 µM).
As for `NC[C@H]1O[C@H](O[C@H]2[C@H](O)[C@@H](O)[C@H](N)C[C@@H]2N)[C@H](N)C[C@@H]1O` [3'-Deoxyneamine, 3'-deoxyneamine], the MIC is over 100 µg/mL in [1]; 6.25 µg/mL (≈ 20.4 µM) in [2]; 6.25 µg/mL (≈ 20.4 µM) in [3]; 100 µg/mL (≈ 326 µM) in [4]; 6.25 µg/mL (≈ 20.4 µM) in test [5]; 6.25 µg/mL (≈ 20.4 µM) in test [6]. In addition, the MIC in test [7] is over 100 µg/mL; in test [8] it was 6.25 µg/mL (≈ 20.4 µM); in test [9], 3.12 µg/mL (≈ 10.2 µM); in test [10], 6.25 µg/mL (≈ 20.4 µM).
